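Values below derive from 48-hour exposures of cells grown in 96-well plates, with endpoints linearly interpolated between the two concentrations bracketing the appropriate inhibition level. Abbreviation: GI50, concentration required for 50% inhibition of growth. TGI: total growth inhibition.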

Consider 12 compounds from PubChem BioAssay (NCI).

Some test systems named below: K-562 leukemia; SF-268 CNS; HCT-116 colon; BT-549 breast; SK-MEL-2 melanoma; EKVX NSCLC; SNB-75 CNS; 786-0 renal; OVCAR-8 ovarian; LOX IMVI melanoma.
Assay in all cases: NCI anticancer screen, dose series, 48 h

Take `COc1cc2c3c(n(CCN4CCOCC4)c(=O)c2cc1OC)-c1ccccc1C3=O`: the GI50 is 99.3 µM with K-562 leukemia; greater than 100 µM in the test with SF-268 CNS; 59.7 µM in the test on HCT-116 colon; greater than 100 µM in the test on BT-549 breast; greater than 100 µM in the test on SK-MEL-2 melanoma; greater than 100 µM in the test with EKVX NSCLC. The GI50 is greater than 100 µM in the test with SNB-75 CNS, 88.9 µM in the test on 786-0 renal, greater than 100 µM with OVCAR-8 ovarian and 45.5 µM with LOX IMVI melanoma. Further, the TGI with K-562 leukemia, in the test with SF-268 CNS, with HCT-116 colon, in the test with BT-549 breast, in the test with SK-MEL-2 melanoma and in the test on EKVX NSCLC was greater than 100 µM each time. Further, the TGI with SNB-75 CNS, with 786-0 renal, with OVCAR-8 ovarian and with LOX IMVI melanoma was greater than 100 µM in each case.
On to `C=C(C)C1CCC2=CC(CC3(C)OC3C3=CC(C(=O)OC)=C(C1)O3)OC2=O` (stereo not given), for which the TGI in the test on K-562 leukemia, in the test with SF-268 CNS, with HCT-116 colon, in the test on BT-549 breast, in the test on SK-MEL-2 melanoma and in the test on EKVX NSCLC was greater than 100 µM throughout. Further, the TGI with SNB-75 CNS, with 786-0 renal, in the test on OVCAR-8 ovarian and in the test with LOX IMVI melanoma was greater than 100 µM in each case.
Consider `CSc1nnc(-c2cc3c([nH]c4ccccc43)c(-c3cccc(O)c3)n2)n1-c1ccc(C)cc1`, for which the GI50 with K-562 leukemia was 5.08 µM; with SF-268 CNS, 3.83 µM; with HCT-116 colon, 4.35 µM; in the test on BT-549 breast, 2.37 µM; in the test with SK-MEL-2 melanoma it was 2.11 µM; with EKVX NSCLC, 4.51 µM. Moreover, the GI50 is 1.66 µM with SNB-75 CNS, 4.61 µM in the test with 786-0 renal, 4.25 µM with OVCAR-8 ovarian and 5.05 µM in the test with LOX IMVI melanoma. Moreover, the TGI is greater than 100 µM in the test on K-562 leukemia; 48.1 µM in the test on SF-268 CNS; greater than 100 µM with HCT-116 colon; 9.27 µM in the test on BT-549 breast; 6.61 µM in the test on SK-MEL-2 melanoma; greater than 100 µM in the test on EKVX NSCLC. Also, the TGI was 5.33 µM in the test with SNB-75 CNS, 32.2 µM in the test on 786-0 renal, 45.2 µM in the test with OVCAR-8 ovarian and greater than 100 µM in the test on LOX IMVI melanoma.
Regarding `COc1cccc(N2CCN(c3ncnc4cc[nH]c34)CC2)c1`, the GI50 was 1.26 µM in the test with K-562 leukemia; 14.9 µM in the test with SF-268 CNS; 3.67 µM in the test on HCT-116 colon; 2.66 µM in the test on BT-549 breast; 10.3 µM in the test with SK-MEL-2 melanoma; 0.94 µM in the test with EKVX NSCLC. For the same compound, the GI50 with SNB-75 CNS was 15.1 µM; in the test with 786-0 renal, 29.1 µM; with OVCAR-8 ovarian, 3.46 µM; with LOX IMVI melanoma it was 13.9 µM. Further, the TGI is greater than 100 µM with K-562 leukemia; greater than 100 µM with SF-268 CNS; greater than 100 µM in the test with HCT-116 colon; 26.8 µM in the test on BT-549 breast; 50.9 µM in the test on SK-MEL-2 melanoma; greater than 100 µM in the test with EKVX NSCLC. The TGI in the test on SNB-75 CNS is 60.4 µM; in the test with 786-0 renal, greater than 100 µM; in the test on OVCAR-8 ovarian it was 56.1 µM; with LOX IMVI melanoma, greater than 100 µM.
Take `CNCC(=O)NC(CO)C(=O)NC(CO)C(=O)NC1C(C(N)=O)OC(n2ccc(N)nc2=O)C(O)C1O` (stereo not given): the GI50 in the test on K-562 leukemia is greater than 50 µg/mL; with SF-268 CNS, 1.95 µg/mL; in the test with HCT-116 colon it was 4.68 µg/mL; in the test with BT-549 breast it was 7.25 µg/mL; in the test on SK-MEL-2 melanoma, 4.58 µg/mL; in the test on EKVX NSCLC, 7.9 µg/mL. Further, the GI50 in the test on SNB-75 CNS was 1.27 µg/mL; with 786-0 renal, 12.5 µg/mL; in the test on OVCAR-8 ovarian, 12.4 µg/mL; in the test with LOX IMVI melanoma, 2.43 µg/mL. The TGI was greater than 50 µg/mL in the test with K-562 leukemia; 15.6 µg/mL in the test with SF-268 CNS; 40.3 µg/mL in the test with HCT-116 colon; 25.3 µg/mL in the test on BT-549 breast; 23.7 µg/mL with SK-MEL-2 melanoma; 31.8 µg/mL in the test on EKVX NSCLC. In addition, the TGI in the test with SNB-75 CNS is 8.92 µg/mL; in the test with 786-0 renal, greater than 50 µg/mL; with OVCAR-8 ovarian, greater than 50 µg/mL; in the test on LOX IMVI melanoma, 15.9 µg/mL.
For the compound `O=C(N/N=C/c1cc(Cl)ccc1O)c1ccccc1Nc1ccnc(C(F)(F)F)c1`, the GI50 is 0.686 µM in the test with K-562 leukemia; 0.37 µM in the test with SF-268 CNS; 0.27 µM in the test with HCT-116 colon; 1.08 µM in the test on BT-549 breast; 2.71 µM in the test with SK-MEL-2 melanoma; 0.25 µM in the test on EKVX NSCLC. Moreover, the GI50 is 0.703 µM in the test on SNB-75 CNS, 0.465 µM in the test with 786-0 renal, 0.493 µM with OVCAR-8 ovarian and 0.263 µM in the test on LOX IMVI melanoma. Moreover, the TGI is 14.5 µM with K-562 leukemia; 14.7 µM in the test on SF-268 CNS; 13.1 µM in the test on HCT-116 colon; 25.7 µM with BT-549 breast; 19.9 µM in the test on SK-MEL-2 melanoma; 4.86 µM in the test on EKVX NSCLC. Further, the TGI with SNB-75 CNS came out at 20.8 µM; in the test on 786-0 renal, 4.29 µM; in the test on OVCAR-8 ovarian, 15.5 µM; in the test with LOX IMVI melanoma, 12 µM.
With `Cc1ccc(-c2c3c(nn2-c2ccc(S(=O)(=O)NC(=O)NC4CCCCC4)cc2)-c2ccccc2C3)cc1`, the GI50 is 3.1 µM with K-562 leukemia; 11.5 µM in the test on SF-268 CNS; 3.3 µM in the test with HCT-116 colon; 11.4 µM with BT-549 breast; 16.8 µM in the test with SK-MEL-2 melanoma; 11.8 µM in the test on EKVX NSCLC. For the same compound, the GI50 in the test on SNB-75 CNS was 20.4 µM; in the test on 786-0 renal, 2.29 µM; in the test with OVCAR-8 ovarian, 26.2 µM; with LOX IMVI melanoma, 1.82 µM. Also, the TGI in the test on K-562 leukemia was 13.5 µM; with SF-268 CNS, 28.6 µM; in the test with HCT-116 colon it was 15.9 µM; in the test on BT-549 breast, 26.5 µM; in the test with SK-MEL-2 melanoma, 32 µM; with EKVX NSCLC, 25.4 µM. For the same compound, the TGI in the test on SNB-75 CNS was determined as 45.5 µM; in the test with 786-0 renal it was 13.8 µM; in the test with OVCAR-8 ovarian, 70.7 µM; in the test on LOX IMVI melanoma, 3.73 µM.
On to `O=c1cc(-c2ccccc2)oc2cc(OCCCCCN3CCOCC3)cc(O)c12`, for which the GI50 in the test with K-562 leukemia is 29 µM; with SF-268 CNS, 75.9 µM; in the test on HCT-116 colon, 19.2 µM; in the test on BT-549 breast, 77.5 µM; with SK-MEL-2 melanoma, 25.4 µM; in the test with EKVX NSCLC, greater than 100 µM. Further, the GI50 in the test on SNB-75 CNS is 3.64 µM; in the test on 786-0 renal it was 30 µM; with OVCAR-8 ovarian, 68.2 µM; in the test on LOX IMVI melanoma, greater than 100 µM. The TGI was greater than 100 µM with K-562 leukemia; greater than 100 µM in the test on SF-268 CNS; 64.8 µM in the test on HCT-116 colon; greater than 100 µM in the test on BT-549 breast; 91.7 µM with SK-MEL-2 melanoma; greater than 100 µM in the test on EKVX NSCLC. Also, the TGI with SNB-75 CNS was 15.2 µM; with 786-0 renal, greater than 100 µM; in the test with OVCAR-8 ovarian, greater than 100 µM; in the test with LOX IMVI melanoma it was greater than 100 µM.
For `O=C1CC(Cc2n[nH]c3c2CCCC3)CC(=O)N1`, the TGI in the test with K-562 leukemia, in the test on SF-268 CNS, in the test on HCT-116 colon, in the test on BT-549 breast, with SK-MEL-2 melanoma and with EKVX NSCLC was greater than 100 µM throughout. For the same compound, the TGI in the test on SNB-75 CNS, in the test on 786-0 renal, in the test with OVCAR-8 ovarian and in the test on LOX IMVI melanoma was greater than 100 µM throughout.
Regarding `CCN(CC)S(=O)(=O)c1cccc(-c2ccc3c(NC(=O)C4CC4)n[nH]c3c2)c1`, the GI50 with K-562 leukemia was 0.381 µM; in the test on SF-268 CNS, 2.34 µM; in the test with HCT-116 colon it was 1.92 µM; with BT-549 breast, 1.53 µM; in the test on SK-MEL-2 melanoma, 1.85 µM; in the test on EKVX NSCLC it was 2.19 µM. Moreover, the GI50 in the test with SNB-75 CNS is 1.32 µM; with 786-0 renal, 2.5 µM; in the test on OVCAR-8 ovarian, 2.69 µM; in the test with LOX IMVI melanoma, 2.44 µM. Further, the TGI with K-562 leukemia, in the test on SF-268 CNS, in the test on HCT-116 colon, in the test with BT-549 breast, with SK-MEL-2 melanoma and in the test with EKVX NSCLC was greater than 6.25 µM in each case. For the same compound, the TGI in the test on SNB-75 CNS, in the test with 786-0 renal, in the test with OVCAR-8 ovarian and with LOX IMVI melanoma was greater than 6.25 µM each time.
On to `Cc1ccc(NC(=S)C#N)c(C)c1`, for which the TGI in the test with K-562 leukemia, in the test with SF-268 CNS, with HCT-116 colon, in the test on BT-549 breast, in the test on SK-MEL-2 melanoma and in the test on EKVX NSCLC was greater than 100 µM throughout. For the same compound, the TGI with SNB-75 CNS, with 786-0 renal, in the test on OVCAR-8 ovarian and with LOX IMVI melanoma was greater than 100 µM each time.
As for `Cc1nc2sc(C(=O)Nc3ccccc3)c(N)c2cc1C(O)c1ccccc1` (stereo not given), the GI50 in the test with K-562 leukemia is 0.0933 µM; with SF-268 CNS, 0.917 µM; in the test with HCT-116 colon it was 0.255 µM; in the test with BT-549 breast, 0.409 µM; in the test with SK-MEL-2 melanoma, 0.659 µM; with EKVX NSCLC, 0.597 µM. For the same compound, the GI50 is 0.244 µM in the test with SNB-75 CNS, 0.553 µM in the test with 786-0 renal, 0.408 µM in the test with OVCAR-8 ovarian and 0.382 µM in the test on LOX IMVI melanoma. In addition, the TGI is greater than 59.2 µM in the test with K-562 leukemia; greater than 100 µM in the test on SF-268 CNS; 12.8 µM in the test on HCT-116 colon; 24.1 µM in the test with BT-549 breast; greater than 100 µM with SK-MEL-2 melanoma; greater than 100 µM in the test on EKVX NSCLC. Further, the TGI in the test on SNB-75 CNS is greater than 72.8 µM; with 786-0 renal, 20 µM; with OVCAR-8 ovarian it was greater than 100 µM; in the test with LOX IMVI melanoma it was greater than 41.1 µM.
